Measured values as given in patent EP1022029A1, “NOOTROPIC AGENT” (priority 1997, dated 1999).

Tests used:
α4β2 receptor = target: T1, α4β2 receptor (Rattus norvegicus, UniProt P09483+P12390); test: ACh-evoked currents in α4β2 receptors expressed in Xenopus oocytes (two-electrode voltage clamp); type: cell-based; conditions: for % of the original amplitude (Ach-evoked current): treatment as labelled, nefiracetam 1 µM, GF109203X 100 nM, peptides co-expressed, Mean ± SD, n = 6 to 8; for normalized response (%): nef(-), n=5
T1 construct: expressed in transfected cells; host or cells: Xenopus oocytes injected with in vitro transcribed mRNA
Procedure: Two-electrode voltage-clamp technique was used to record expression α4β2 or α7 receptors in oocytes. ACh (100 µM) was applied to a single oocyte in the presence or absence of α-BuTX (50 nM) or MCA (3 µM). The holding voltage was -30 or -60 mV for α4β2-nAChR or α7-nAChR, respectively. Downward directions correspond to inward currents.
(§1) mRNAs for the rat α4β2 receptor and α7 receptor, GLUR1, 2, 3 receptors, and NP152 and NP153 were constructed as described previously. Xenopus oocytes were manually separated from the ovary, and subjected to treatment with collagenase (0.5 mg/ml). Thereafter, the treated oocytes were incubated overnight in Barth's solution (in mM, 88 NaCl, 1 KCl, 2.4 NaHCO3, 0.82 MgSO4, 0.33 […], 0.41 CaCl2, and 7.5 Tris; pH 7.6). The oocytes were injected with the α4β2 or α7 receptor mRNA and incubated at 18°C. In some cases, NP152 and NP153 were co-expressed with the α4β2 and α7 receptors. The injected oocytes were incubated and transferred to a recording chamber 2-7 days after incubation and continuously superfused at room temperature (20-22°C) with a standard frog Ringer's solution [in mM: 115 NaCl, 2 KCl, 1.8 CaCl2, 5 HEPES; pH 7.0]. To remove the effect of endogenous muscarinic ACh receptor, 1 µM atropine was added to the extracellular solution. ACh-evoked currents were recorded by use of two-electrode voltage clamp techniques and an amplifier (GeneClamp-500, Axon Instrument, Inc. USA). The currents were analyzed on a microcomputer by pClamp software (Axon Instrument, Inc.; Version 6). From the results, an assessment was made as to whether nefiracetam actually acts on the nACh receptors.

α7 receptor = target: T2, α7 receptor (Rattus norvegicus, UniProt Q05941); test: ACh-evoked currents in α7 receptors expressed in Xenopus oocytes (two-electrode voltage clamp); type: cell-based; conditions: for % of the original amplitude (Ach-evoked current): treatment as labelled, nefiracetam 1 µM, GF109203X 100 nM, peptides co-expressed, Mean ± SD, n = 6 to 8; for normalized response (%): nef(-), n=5
T2 construct: expressed in transfected cells; host or cells: Xenopus oocytes injected with in vitro transcribed mRNA
Procedure: Two-electrode voltage-clamp technique was used to record expression α4β2 or α7 receptors in oocytes. […] The holding voltage was -30 or -60 mV for α4β2-nAChR or α7-nAChR, respectively. Downward directions correspond to inward currents.
as §1

[1] = test system: glutamate release from hippocampal slices; type: cell-based, guinea pig; conditions: St (ES+) electrical stimulation; nefiracetam 1 µM, tetrodotoxin 0.5 µM, α-bungarotoxin 50 nM, mecamylamine 3 µM
[2] = test system: postsynaptic potentials evoked from the hippocampal CA1 region; test: Postsynaptic potentials recorded in the CA1 pyramidal cell layer of rat hippocampal slices; type: cell-based; conditions: Rattus norvegicus, APV 100 µM alone, -10 to -1 min before nefiracetam; Time (min) in c0; n=5; read-out: Postsynaptic potential (% of original amplitude)

T2 sequence (Q05941 23-502): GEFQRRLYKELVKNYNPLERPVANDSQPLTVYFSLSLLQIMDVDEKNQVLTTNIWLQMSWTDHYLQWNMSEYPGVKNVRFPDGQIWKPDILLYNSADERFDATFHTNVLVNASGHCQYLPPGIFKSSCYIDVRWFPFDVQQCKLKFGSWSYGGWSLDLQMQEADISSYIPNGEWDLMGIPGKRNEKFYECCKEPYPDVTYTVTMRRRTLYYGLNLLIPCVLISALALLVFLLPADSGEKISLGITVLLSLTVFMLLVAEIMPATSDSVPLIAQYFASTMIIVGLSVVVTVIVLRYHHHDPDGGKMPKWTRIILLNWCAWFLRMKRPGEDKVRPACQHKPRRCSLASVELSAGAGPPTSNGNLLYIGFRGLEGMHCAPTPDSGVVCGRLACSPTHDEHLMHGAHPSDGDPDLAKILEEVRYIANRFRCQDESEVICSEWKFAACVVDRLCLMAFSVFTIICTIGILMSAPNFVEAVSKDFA
T1 sequence (P09483 31-630): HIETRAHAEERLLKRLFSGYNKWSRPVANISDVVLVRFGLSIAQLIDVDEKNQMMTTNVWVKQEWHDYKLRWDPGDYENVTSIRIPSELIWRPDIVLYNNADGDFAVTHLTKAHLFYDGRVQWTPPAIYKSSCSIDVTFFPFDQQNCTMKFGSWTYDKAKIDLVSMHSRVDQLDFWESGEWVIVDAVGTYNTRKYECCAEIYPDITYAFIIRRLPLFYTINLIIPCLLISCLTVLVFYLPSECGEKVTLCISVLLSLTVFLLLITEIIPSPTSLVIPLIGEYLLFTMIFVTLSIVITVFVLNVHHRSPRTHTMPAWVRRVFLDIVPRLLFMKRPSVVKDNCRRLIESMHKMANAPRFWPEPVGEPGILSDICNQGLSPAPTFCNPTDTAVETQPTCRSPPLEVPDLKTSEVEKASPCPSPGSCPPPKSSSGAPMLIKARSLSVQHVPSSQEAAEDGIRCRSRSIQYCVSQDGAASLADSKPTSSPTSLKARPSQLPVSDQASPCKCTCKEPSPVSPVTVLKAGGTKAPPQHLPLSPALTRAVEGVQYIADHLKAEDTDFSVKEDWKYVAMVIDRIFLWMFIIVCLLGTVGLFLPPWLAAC
T1 sequence (P12390 25-500): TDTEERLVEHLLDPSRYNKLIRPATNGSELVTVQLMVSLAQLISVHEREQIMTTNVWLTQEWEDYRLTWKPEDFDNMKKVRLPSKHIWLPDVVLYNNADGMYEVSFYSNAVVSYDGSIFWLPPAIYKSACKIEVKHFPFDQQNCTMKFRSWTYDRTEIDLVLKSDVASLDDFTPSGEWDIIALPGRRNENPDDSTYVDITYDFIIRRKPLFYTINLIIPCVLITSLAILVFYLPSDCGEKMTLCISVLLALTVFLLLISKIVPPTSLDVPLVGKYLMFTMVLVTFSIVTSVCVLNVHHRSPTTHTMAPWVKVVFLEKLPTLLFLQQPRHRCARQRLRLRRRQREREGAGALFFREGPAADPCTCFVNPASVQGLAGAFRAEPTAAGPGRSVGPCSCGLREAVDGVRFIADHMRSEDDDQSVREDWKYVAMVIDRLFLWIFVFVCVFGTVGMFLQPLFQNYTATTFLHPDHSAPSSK

Nc1nc2c(ncn2[C@@H]2O[C@H](COP(=O)(O)OP(O)(O)=S)[C@@H](O)[C@H]2O)c(=O)[nH]1 [GDPβS, reference compound]
% of the original amplitude (Ach-evoked current) (α4β2 receptor): 96 ± 10%
% of the original amplitude (Ach-evoked current) (α7 receptor): 100 ± 11%

O=S(=O)(NCCNCC=Cc1ccc(Br)cc1)c1cccc2cnccc12 [H89, N-[2-(p-Bromocinnamylamino)ethyl]-5-isoquinolinesulfonamide · 2HCl, reference compound]
% of the original amplitude (Ach-evoked current) (α4β2 receptor): 98.8 ± 12%
% of the original amplitude (Ach-evoked current) (α7 receptor): 99.4 ± 5.8%

CNC1(C)C2CCC(C2)C1(C)C (stereo not drawn) [mecamylamine, reference compound]
Amount of released glutamate [1]: 2.45 ± 0.3 (c) nmol/mg protein/10min.
effect on ACh-evoked current (Fig. 3) (α4β2 receptor; MCA 3 µM, ACh 100 µM, holding voltage -30 mV): strongly inhibit

CC(=O)OCC[N+](C)(C)C [ACh, reference compound]
normalized response (%) (α4β2 receptor; ACh 0.1 µM): 0%
normalized response (%) (α4β2 receptor; ACh 1 µM): 3%
normalized response (%) (α4β2 receptor; ACh 10 µM): 43%
normalized response (%) (α4β2 receptor; ACh 100 µM): 75%
normalized response (%) (α4β2 receptor; ACh 1000 µM): 100%
normalized response (%) (α7 receptor; ACh 0.1 µM): 0%
normalized response (%) (α7 receptor; ACh 1 µM): 0.5%
normalized response (%) (α7 receptor; ACh 10 µM): 1%
normalized response (%) (α7 receptor; ACh 100 µM): 28%
normalized response (%) (α7 receptor; ACh 1000 µM): 100%

CN[C@@H]1C[C@H]2O[C@@](C)([C@@H]1OC)n1c3ccccc3c3c4c(c5c6ccccc6n2c5c31)C(=O)NC4 [Staurosporine, reference compound]
% of the original amplitude (Ach-evoked current) (α4β2 receptor): 90 ± 8%
% of the original amplitude (Ach-evoked current) (α7 receptor): 101 ± 8%

N[C@H](CCCP(=O)(O)O)C(=O)O [APV, D-2-amino-5-phosphonovaleric acid, reference compound]
activity at 100 µM [2]: 87 ± 7%

CN(C)CCCn1cc(C2=C(c3c[nH]c4ccccc34)C(=O)NC2=O)c2ccccc21 [GF109203X, reference compound]
% of the original amplitude (Ach-evoked current) (α4β2 receptor): 79.3 ± 15%
% of the original amplitude (Ach-evoked current) (α7 receptor): 102.2 ± 9.6%
